Results reported in US11993582B2, “Crystalline forms of a LTA4H inhibitor” (Novartis AG, priority 2018, dated 2024).
Converted amounts (≈) assume the structure as drawn.

Columns and labels:
Format in all cases: physicochemical
[1] = Solid state stability in bulk (HPLC degradation products, XRPD); settings: test conditions 1-5: 1 week, tight or open container, room temperature to 80° C., up to 92% RH; listed as Modification HB
Procedure: The chemical and physical stability of form B and form HB was investigated, exposing the individual forms to high humidity at temperatures ranging from 25-80° C.
The degradation products were analyzed by HPLC and the sample was analyzed by XPRD to detect any changes to the solid state.

[2] = Physical stability: granulation simulation experiment (XRPD and/or DSC); settings: ethanol or water as granulation solvent, 25° C.
Procedure: Behavior under granulation simulation experiment: The physical stability of crystalline forms HB was also evaluated in granulation simulation experiments. In these experiments granulating solvent was added dropwise to the crystalline form HB until the solid is wetted sufficiently. The mixture was then vortexed between each addition at 25° C. The mixture was then dried under vacuum. The crystallinity of the material (post-grinding) was re-evaluated by XRPD and/or DSC. The granulating solvent was water or ethanol.

Hygroscopicity by DVS = assay: Hygroscopicity by DVS
Text: Crystalline form HB is a hydrated form of (S)-3-amino-4-(5-(4-((5-chloro-3-fluoropyridin-2-yl)oxy)phenyl)-2H-tetrazol-2-yl)butanoic acid.

[3] = Solubility in aqueous buffers and bio-relevant media
[4] = Physical stability: behavior under grinding (XRPD); settings: ground manually in a mortar for 3 minutes
Procedure: Behavior under grinding: The physical stability of crystalline form Form HB was also evaluated. 50 mg of the crystalline form B or HB were ground manually in a mortar for 3 minutes.

[5] = Stability in solvent: equilibration of Form HB with solvent, residue analysed by XRPD
Procedure: Equilibrations with solvent were carried out to investigate the relative stability of form HB in solvent. 50 mg of Form HB is equilibrated with 1 mL solvent for 24 h (or 7 days, or 28 days) in a water bath at 25° C. or for 7 days at 50° C. The solutions are filtered and dried for 10 minutes in air. The resulting solid is analyzed by XRPD.
Various solvent were investigated: acetone, acetonitrile, dichloromethane, dioxane, ethanol, heptane, methanol, THF, acetone/water mixtures from 10/90 to 90/10, acetonitrile/water mixtures from 10/90 to 90/10, dioxane/water mixtures from 10/90 to 90/10 and ethanol/water mixture from 10/90 to 90/10, tetrahydrofuran/water (50/50) and 1-propanol/water (70/30).

[6] = as above; remark: listed apart in the source
[7] = Physical stability: behavior under compression (XRPD); settings: 5 minutes at 10 tons, hydraulic press, 13 mm tablets
Procedure: Behavior under compression: The physical stability of crystalline Form HB was also evaluated. 300 mf of the crystalline form HB was compressed for 5 minutes at 10 tons with a hydraulic press (diameter of the tablets 13 mm). The sample was then characterized by XRPD to detect any change in the solid state.

## N[C@@H](CC(=O)O)Cn1nnc(-c2ccc(Oc3ncc(Cl)cc3F)cc2)n1 [Form HB, (S)-3-amino-4-(5-(4-((5-chloro-3-fluoropyridin-2-yl)oxy)phenyl)-2H-tetrazol-2-yl)butanoic acid]
[1]
  Chemical and physical stability in bulk: stable in all conditions except at 80 °C without humidity
[2]
  Form change by XRPD upon granulation: no form change
Hygroscopicity by DVS; at 10% RH and above 60% RH
  Rehydration: Stepwise rehydration to HB
Hygroscopicity by DVS; below 10% RH
  Behaviour at low humidity: loses their water
Hygroscopicity by DVS; between 10-90% RH
  Hygroscopicity: not hygroscopic
[3]; FaSSIF (pH=6.5)
  solubility: 90 µg/mL (≈ 229 µM)
[3]; FeSSIF (pH=5.8)
  solubility: 9 µg/mL (≈ 22.9 µM)
[3]; simulated gastric fluid (SGF of pH=2)
  solubility: 750 µg/mL (≈ 1910 µM)
[4]
  Change by XRPD under grinding: did not result in any change
[5]; 25° C., 7 days or 28 days, a variety of solvent
  Solid form after equilibration with solvent: no change
[5]; 25° C., 7 days or 28 days, acetone, dioxane, ethanol, methanol and THF
  Solid form after equilibration with solvent: converts to amorphous material or gel like material
[5]; 50° C., 7 days, 1,4-Dioxane
  Solid state residue: Amorphous
[5]; 50° C., 7 days, 1-Butanol
  Solid state residue: Amorphous
[5]; 50° C., 7 days, Acetone
  Solid state residue: Amorphous
[5]; 50° C., 7 days, Acetone/water 50/50
  Solid state residue: Form HB
[5]; 50° C., 7 days, Acetone/water 90/10
  Solid state residue: Form HB
[5]; 50° C., 7 days, Acetonitrile
  Solid state residue: Amorphous
[5]; 50° C., 7 days, Anisole
  Solid state residue: Amorphous
[5]; 50° C., 7 days, DMSO
  Solid state residue: Amorphous
[5]; 50° C., 7 days, DMSO/methanol 50/50
  Solid state residue: Amorphous
[5]; 50° C., 7 days, DMSO/water 50/50
  Solid state residue: Form HB
[5]; 50° C., 7 days, DMSO/water 90/10
  Solid state residue: Amorphous
[5]; 50° C., 7 days, Dichloromethane
  Solid state residue: Amorphous
[5]; 50° C., 7 days, Ethanol
  Solid state residue: Amorphous
[5]; 50° C., 7 days, Ethyl acetate
  Solid state residue: Amorphous
[5]; 50° C., 7 days, Isopropanol
  Solid state residue: Amorphous
[5]; 50° C., 7 days, Isopropyl acetate
  Solid state residue: Amorphous
[5]; 50° C., 7 days, MEK
  Solid state residue: Amorphous
[5]; 50° C., 7 days, MIBK
  Solid state residue: Amorphous
[5]; 50° C., 7 days, MTBE
  Solid state residue: Amorphous
[5]; 50° C., 7 days, Methanol
  Solid state residue: transformed into Form B
[5]; 50° C., 7 days, NMP
  Solid state residue: Amorphous
[5]; 50° C., 7 days, THF
  Solid state residue: Amorphous
[5]; 50° C., 7 days, THF/acetone 50/50
  Solid state residue: Amorphous
[5]; 50° C., 7 days, THF/methanol 50/50
  Solid state residue: Amorphous
[5]; 50° C., 7 days, THF/water 50/50
  Solid state residue: Form HB
[5]; 50° C., 7 days, Toluene
  Solid state residue: Amorphous
[5]; 50° C., 7 days, Water
  Solid state residue: Form HB
[5]; 50° C., 7 days, many solvents
  Solid form after equilibration with solvent: became amorphous
[5]; 50° C., 7 days, n-Heptane
  Solid state residue: mixture HB + B
[6]; high temperature slurry at 80° C. in aqueous solvent mixtures
  Form conversion through slurry: Modification B can be obtained
[6]; hot or boiling methanol, about 50° C. to about 65° C.
  Form conversion through slurry: transforms into anhydrous Modification B
[7]
  Change of crystalline form by XRPD under compression: No change of crystalline form
